The numbers were not newly measured in patent US11779012B2, “Compositions and methods for preserving red blood cells and platelets” (RythRx Therapeutics, LLC, priority 2013, dated 2023), which cites them from elsewhere.

The target in data set [1] is pleckstrin homology (PH) domain of Akt (Homo sapiens, UniProt P31749). The note with it: binding to PH domain of Akt.
The conditions of data set [2]: after intravenous administration.

Structures are written as SMILES. pKd: −log10 of the molar value.

pleckstrin homology (PH) domain of Akt, sequence (P31749 5-108 limits assumed): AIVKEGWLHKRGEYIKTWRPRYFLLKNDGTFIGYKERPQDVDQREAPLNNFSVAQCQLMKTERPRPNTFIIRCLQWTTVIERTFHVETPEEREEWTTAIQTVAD

By pKd is commonly meant the negative decadic logarithm of the Kd, by convention in mol/L. For `CN1N=C(N)c2cn([C@@H]3O[C@H](COP(=O)(O)O)[C@@H](O)[C@H]3O)c3ncnc1c23` [TCNP, ((2R,3S,4R,5R)-5-(3-amino-5-methyl-1,4,5,6,8-pentaazaacenaphthylen-1(5H)-yl)-3,4-dihydroxytetrahydrofuran-2-yl)methyl dihydrogen phosphate], in data set [1], the negative-log Kd (pKd) was 6.16. In addition, the “half-life (retention of TCNP in human RBC)” value in data set [2] was 89 h.
